The source of these data is patent US5436238A, “Halichondrins and related compounds” (President and Fellows of Harvard College, priority 1993, dated 1995).

For orientation: IC50 means the concentration needed to halve the response being measured.

The subject of one assay is LOX human melanoma cells. Nature of the assay: In vitro growth inhibition, LOX melanoma cells. In kind it is cell-based. To be noted: Table 1, LOX, synthetic halichondrin B. The procedure: (§1) Synthetic halichondrin B I was tested in growth inhibition assays against several different tumor cell lines to obtain IC50 values. For comparison, the National Cancer Instititute reported growth inhibitory effects of natural halichondrin B against L1210 murine leukemia cells at IC50 =0.3 nM [J. Biol. Chem. 266:15882-15889 (1991)] and Hirata and Uemura reported IC50 =0.08 nM against B-16 murine melanoma cells [Pure Appl. Chem. 58:701-710 (1986)]. Both references are hereby incorporated in their entirety.
In addition, several synthetic halichondrin-related compounds were tested. […] For the structures of compounds 13-16, see FIG. 3.

A further assay concerns HL-60 cells. Nature of the assay: In vitro growth inhibition, HL-60 monocytic leukemia cells. Type of assay: cell-based. To be noted: HL-60, human monocytic leukemia. Here is the method:
as §1

In the next assay the test system is HT-29 cells. Nature of the assay: In vitro growth inhibition, HT-29 colon carcinoma cells. The conditions noted are these: HT-29, human colon carcinoma. Type of assay: cell-based. Here is the method: as §1
The next assay relates to DK-l cells. Description: In vitro growth inhibition, DK-l ras-transforming fibroblasts. To be noted: human ras-transforming fibroblasts. In kind it is cell-based. The procedure:
as §1

A further assay has as its system SK-OV-3 cells. Description: In vitro growth inhibition, SK-OV-3 ovarian carcinoma cells. Type of assay: cell-based. The conditions noted are these: SK-OV-3, human ovarian carcinoma. Here is the method:
as §1

A further assay has as its system Caov-3 cells. Description: In vitro growth inhibition, Caov-3 ovarian carcinoma cells. In kind it is cell-based. To be noted: Caov-3, human ovarian carcinoma. The procedure: as §1
For the next assay, the system named is OVCA 433 cells. Nature of the assay: In vitro growth inhibition, OVCA 433 ovarian carcinoma cells. In kind it is cell-based. To be noted: OVCA 433, human ovarian carcinoma. Here is the method: as §1
In the next assay the test system is NIH:OVCAR-3 cells. Description: In vitro growth inhibition, NIH:OVCAR-3 ovarian carcinoma cells. In kind it is cell-based. The conditions noted are these: NIH:OVCAR-3, human ovarian carcinoma. The procedure: as §1
For another assay, the system named is MCF-7 cells. Nature of the assay: In vitro growth inhibition, MCF-7 breast carcinoma cells. Type of assay: cell-based. To be noted: MCF-7, human breast carcinoma. Here is the method: as §1
The test system of a further assay is MG-63 cells. Description: In vitro growth inhibition, MG-63 osteosarcoma cells. Type of assay: cell-based. The conditions noted are these: MG-63, human osteosarcoma. Here is the method: as §1
In assay [1] the test system is subcutaneous LOX human melanoma tumors. Description: In vivo anti-tumor effect on subcutaneous LOX human melanoma tumors in nude mice. The procedure:
Mice received 1×10^6 LOX cells via s.c. injection on day 0, with complete injection randomization across sexes and treatment groups. On days 3-7 and 10-14, male and female experimental mice received 25 μg/kg of synthetic halichondrin B 1 via i.p. injection in saline; controls received saline alone.

Assay [2] deals with L1210 murine leukemia cells. To be noted: natural halichondrin B, J. Biol. Chem. 266:15882-15889 (1991), read-out: growth inhibitory effects, IC50; cited from earlier work.
The test system of assay [3] is B-16 murine melanoma cells. The conditions noted are these: Pure Appl. Chem. 58:701-710 (1986), read-out: IC50 against B-16 cells; cited from earlier work.

In the case of `C=C1C[C@@H]2CC[C@@]34C[C@H]5O[C@H]6[C@@H](O3)[C@H]3O[C@H](CC[C@@H]3O[C@H]6[C@H]5O4)CC(=O)O[C@@H]3[C@@H](C)[C@@H]4O[C@@H]5C[C@]6(C[C@@H]7O[C@]8(C[C@H](C)[C@@H]9O[C@H]([C@@H](O)C[C@@H](O)CO)C[C@@H]9O8)C[C@H](C)[C@@H]7O6)O[C@@H]5C[C@@H]4O[C@H]3C[C@H]3O[C@@H](CC[C@@H]1O2)C[C@@H](C)C3=C` [halichondrin B], the IC50 in the assay with LOX human melanoma cells came to 0.08 nM; with HL-60 cells it was 0.12 nM; with HT-29 cells it was 0.19 nM; in the assay on DK-l cells it was 0.18 nM; with SK-OV-3 cells, 0.12 nM; in the assay on Caov-3 cells it was 0.25 nM. Further, the IC50 in the assay with OVCA 433 cells is 0.16 nM; in the assay with NIH:OVCAR-3 cells, 0.06 nM; in the assay with MCF-7 cells it was 0.2 nM; in the assay with MG-63 cells, 0.13 nM; in assay [2], 0.3 nM; in assay [3], 0.08 nM. Besides, in assay [1] (25 μg/kg i.p. in saline, days 3-7 and 10-14, both sexes), the tumor growth entry was “prevented tumor growth almost completely in both sexes”. In addition, the “tumor growth after initial development period” value in [1] (25 μg/kg i.p., days 3-7 and 10-14, after initial development into visible but very small tumors) is listed as “failed to grow after an initial period of development into visible but very small tumors”. Also, the tumor regression result in assay [1] (25 μg/kg i.p., after the initial development period) is on record as “actually regressed”.
